Assay results as given in US7279502B2, “Polyamine analog conjugates and quinone conjugates as therapies for cancers and prostate diseases” (Cellgate, Inc., priority 1999, dated 2007).
Like-named read-outs stand apart in the source and are kept apart here. One block for each compound: values may come before it.

How the values were obtained:
Type in all cases: cell-based
[1] = tested on: human prostate adenocarcinoma cell line PC-3; test: MTT assay, quinones, PC-3; details: read-out: ID50 PC-3
Method: (§1) Cell Culture: The human lung adenocarcinoma cell line, A549, and human prostatic cancer cell line, DUPRO, were a gift from Dr. M. Eileen Dolan, University of Chicago, Department of Medicine. A549 was grown in Ham's F-12K medium (Fisher Scientific, Itasca, Ill.) supplemented with 10% fetal bovine serum and 2 mM L-glutamine. DUPRO was grown in RPMI-1640 supplemented with 10% fetal bovine serum. The human colon carcinoma cell line, HT29, and the human breast carcinoma cell line, MCF7, were obtained from the American Type Culture Collection, Rockville, Md. HT29 cells were grown in McCoy's 5A medium (Gibco, BRL, Gaithersburg, Md.) supplemented with 10% fetal bovine serum. MCF7 cells were grown in Richter's Improved Modified Eagle's medium supplemented with 10% fetal bovine serum and 2.2 g/L sodium bicarbonate. The human prostate adenocarcinoma cell lines, LNCAP, PC-3 and DU145, were gifts from Dr. George Wilding, University of Wisconsin Comprehensive Cancer Center and the Department of Medicine, and were grown in Dulbecco's Modified Eagle's medium supplemented with a 5% fetal bovine serum. The malignant glioma cell line, U251MG NCI was obtained from the brain tumor tissue bank at the University of California, San Francisco Department of Neurosurgery, and was grown in Dulbecco's Modified Eagle's medium supplemented wth 10% fetal bovine serum. DUPRO, A549 and MCF7 cells were grown in 100 units/mL penicillin and 100 μg/mL streptomycin. HT29 and U251MG NCI cells were grown in 50 μg/mL gentamycin. LNCAP, PC-3 and DU145 cells were maintained in 1% antibiotic antimycotic solution (Sigma, St. Louis, Mo.). All cell cultures were maintained at 37° C. in 5% CO2/95% humidified air.
(§2) MTT assay. Exponentially growing monolayer cells were plated in 96 well plates at a density of 500 cells/well and allowed to grow for 24 h. Serially diluted drug solutions were added such that the final drug concentrations in the treatment media were between 0 and 35 μM. Cells were incubated with drug at either 4 hr or 72 hr. After 4 hr and 72 hr treatment, drugs were removed, fresh media (without) drug (100 uL) was added and cells were incubated for 6 days. After six days, 25 μL of a Dulbecco's phosphate-buffered saline solution containing 5 mg/mL of MTT (Thiazolyl blue) (Sigma) was added to each well and incubated for 4 h at 37° C. Then 100 μL of lysis buffer (20% sodium dodecyl sulfate, 50% N,N-dimethylformamide and 0.8% acetic acid, pH 4.7) was added to each well and incubated for an additional 22 h. A microplate reader (E max, Molecular Devices, Sunnyvale, Calif.) set at 570 nm was used to determine the optical density. Results were plotted as a ratio of the optical density in drug treated wells to the optical density in wells treated with vehicle alone. Plotting and estimation of ID50 values were accomplished with manufacturer supplied software. The data is presented below in Tables 3, 4, 5 and 6.

[2] = tested on: human prostate cancer cells PC3; test: MTT assay, polyamine analogs, PC3; details: for EC50: PC-3, survival of cultured PC3 cells, figure legends, read-out: ED50 (the source's name)
Method: (§3) Human breast cancer cell line MCF7 was grown in Richter's Improved Modified Eagle's Medium supplemented with 10% fetal bovine serum (FBS) and 2.2 g/L sodium bicarbonate. Human brain tumor cell line U251 MG-NCI was grown in Dulbecco's Modified Eagle's Medium supplemented with 10% FBS. Human lung cancer cell line A549 was grown in Ham's F-12K medium (Cellgro, Mediatech, Inc., VA), supplemented with 10% FBS and 2 mM L-glutamine. Human colon cancer cell line HT29 was cultured in McCoy's 5A medium (Gibco, BRL, Gaithersburg, Md.) supplemented with 10% FBS. Human prostate cancer cell lines PC-3, LNCAP and DuPro were grown in RPMI 1640 Medium (Cellgro, Mediatech, Inc., VA) supplemented with 10% FBS. Another human prostate cancer cell line DU145 was grown in Dulbecco's Modified Eagle's Medium (Gibco, BRL, Gaithersburg, Md.) supplemented with 5% FBS. The A549, MCF7, PC3, LNCAP and DuPro cell lines were cultured in 100 units/mL penicillin and 100 μg/mL streptomycin. HT29 and U251MG cell lines were grown in 50 μg/mL gentamycin (Gibco, BRL, Gaithersburg, Md.). DU145 cell line was maintained in 1% antibitic-antimycotic solution (Sigma, St. Louis, Mo.). The cell cultures were maintained at 37° C. in 5% CO2/95% humidified air. DuPro cells were obtained from M. Eileen Dolan, University of Chicago. All other cells are available from the American Type Culture Collection, Rockville, Md.
(§4) A conventional MTT assay was used to evaluate percent cell survival. Exponentially growing monolayer cells were plated in 96-well plates at a density of 500 cells per well and allowed to grow for 24 hours. Serial dilutions of the drugs were added to the wells. Six days after drug treatment, 25 μl of MTT solution (5 mg/ml) was added to each well and incubated for 4 hours at 37° C. Then 100 μl of lysis buffer (20% sodium dodecyl sulfate, 50% DMF, and 0.8% acetic acid, pH 4.7) was added to each well and incubated for an additional 22 hours. A microplate reader (“EMAX”-brand, Molecular Devices, Sunnyvale, Calif.) set at 570 nm was used to determine the optical density of the cultures. Results are expressed as a ratio of the optical density in drug-treated wells to the optical density in wells treated with vehicle only.

[3] = tested on: human prostate cancer cells DU145; test: MTT assay, polyamine analogs, DU145; details: for IC50: DU-145, 144 h, read-out: concentration needed for 50% growth inhibition (ID50) DU-145, Table 2, MTT six days after drug treatment; for EC50: figure legends, read-out: ED50 (the source's name)
Method: as §3, §4

[4] = tested on: human prostate cancer cells DUPRO; test: MTT assay, polyamine analogs, DUPRO; details: for IC50: 144 h, read-out: concentration needed for 50% growth inhibition (ID50) DUPRO, Table 2, MTT six days after drug treatment; for EC50: survival of cultured DUPRO cells, figure legends, read-out: ED50 (the source's name)
Method: as §3, §4

[5] = tested on: human colon cancer cells HT29; test: MTT assay, polyamine analogs, HT29; details: for IC50: HT-29, 144 h, read-out: concentration needed for 50% growth inhibition (ID50) HT-29, Table 2, MTT six days after drug treatment; for EC50: HT-29, survival of cultured HT29 cells, figure legends, read-out: ED50 (the source's name)
Method: (§5) As shown in Table 2 and FIGS. 1-32, several novel conformationally restricted polyamine analogs were tested for anti-proliferative properties against cancer cells.
as §3, §4

[6] = tested on: human lung cancer cells A549; test: MTT assay, polyamine analogs, A549
Method: as §5, §3, §4

[7] = tested on: human breast cancer cells MCF7; test: MTT assay, polyamine analogs, MCF7
Method: as §5, §3, §4

[8] = tested on: human brain tumor cells U251 MG NCI; test: MTT assay, polyamine analogs, U251 MG NCI
Method: as §3, §4

[9] = tested on: human breast carcinoma cell line, MCF7; test: MTT assay, quinones, MCF7; details: Table 4, treatment time not given in cell, read-out: ID50 Breast MCF7
Method: as §1, §2

[10] = tested on: human prostate cancer cells LNCAP; test: MTT assay, polyamine analogs, LNCAP; details: survival of cultured LNCAP cells, figure legends; read-out: ED50 (the source's name)
Method: as §3
A conventional MTT assay was used to evaluate percent cell survival. Exponentially growing monolayer cells were plated in 96-well plates at a density of 500 cells per well and allowed to grow for 24 hours. Serial dilutions of the drugs were added to the wells. Six days after drug treatment, 25 μl of MTT solution (5 mg/ml) was added to each well and incubated for 4 hours at 37° C. […] A microplate reader (“EMAX”-brand, Molecular Devices, Sunnyvale, Calif.) set at 570 nm was used to determine the optical density of the cultures. Results are expressed as a ratio of the optical density in drug-treated wells to the optical density in wells treated with vehicle only.

[11] = Table 3, treatment time not given in cell
[12] = Homo sapiens, DU-145, survival of cultured DU145 cells

SMILES: CCNC(=O)CCNC(=O)CCCNC(=O)CCNC(=O)CCCCOC1=CC(=O)C(=O)c2ccccc21 [SL-11085]
IC50 [1, 11]: > 31200 nM

SMILES: CCNCCCNCC1CCCC1NCCCNCC (centres unmarked) [SL-11105]
IC50 ([2]; 144 h, read-out: concentration needed for 50% growth inhibition (ID50) PC-3, Table 2, MTT six days after drug treatment): > 31200 nM
EC50 [2]: > 31200 nM
IC50 ([3]; Homo sapiens): 1600 nM
EC50 [3, 12]: 1600 nM
IC50 ([4]; Homo sapiens, DuPro): > 31200 nM
EC50 ([4]; Homo sapiens, DuPro): 430 nM
IC50 [5]: 25200 nM
EC50 [5]: 25200 nM
IC50 ([6]; Homo sapiens, A549, 144 h, read-out: concentration needed for 50% growth inhibition (ID50) A549, Table 2, MTT six days after drug treatment): > 31200 nM
EC50 ([6]; Homo sapiens, A549, survival of cultured A549 cells, figure legends, read-out: ED50 (the source's name)): 430 nM
IC50 ([7]; MCF7, 144 h, read-out: concentration needed for 50% growth inhibition (ID50) MCF7, Table 2, MTT six days after drug treatment): > 31200 nM
EC50 ([7]; MCF7, survival of cultured MCF7 cells, figure legends, read-out: ED50 (the source's name)): > 31200 nM
IC50 ([8]; U-251, 144 h, read-out: concentration needed for 50% growth inhibition (ID50) U251MG, Table 2, MTT six days after drug treatment): 25900 nM
EC50 ([8]; U-251, survival of cultured U251 MG NCI cells, figure legends, read-out: ED50 (the source's name)): 25900 nM

SMILES: CCCCN/C=C1\C=C(O)C(=O)c2ccccc21 [SL-11089]
IC50 [1, 11]: 11000 nM
IC50 [9]: > 31200 nM

SMILES: O=C1C=C(OCCCCCCOc2ccc(OC3OC(CO)C(O)C(O)C3O)cc2)c2ccccc2C1=O (centres unmarked) [SL-11066]
IC50 [1, 11]: > 31200 nM

SMILES: CN1CCN(c2ccc3nc(-c4ccc5nc(-c6ccc(O)cc6)[nH]c5c4)[nH]c3c2)CC1 [SL-11063]
IC50 ([1]; Table 5, non-quinone structure): > 31200 nM

SMILES: CCNCCCCNCCCCNCCCCNCCCCNC/C=C\CNCCCCNCCCCNCCCCNCCCCNCC [SL-11150]
EC50 ([3]; survival of cultured DU145 cells): 110 nM
EC50 [4]: 480 nM
EC50 [10]: 230 nM

SMILES: CCNCCCCNCC1CCC1CNCCCCNCC (centres unmarked) [SL-11100]
IC50 ([6]; read-out: concentration needed for 50% growth inhibition (ID50) A549, Table 2, MTT six days after drug treatment): 2200 nM

More lines, main results first:

IC50 [1, 11]: 1400 nM
SMILES: O=C1C=C(OCCCCCCOC2=CC(=O)c3ccccc3C2=O)c2ccccc2C1=O [SL-11065]

IC50 [1, 11]: 4600 nM
SMILES: CN(C)c1cccc(OC(=O)CCCCOC2=CC(=O)C(=O)c3ccccc32)c1 [SL-11074]

IC50 [1, 11]: 2400 nM
IC50 [9]: 4000 nM
SMILES: CCCCN(CC1=CC(=O)C(=O)c2ccccc21)C(C)=O [SL-11087]

IC50 [1, 11]: 1500 nM
SMILES: O=C1C=C(OCCCCCCOc2ccccc2)c2ccccc2C1=O [SL-11068]

IC50 ([3]; Homo sapiens): 80 nM
IC50 ([4]; Homo sapiens, DuPro): 440 nM
IC50 [5]: 970 nM
SMILES: CCNC/C=C\CNC/C=C\CNCCCCNCC [SL-11119]
EC50 [2]: > 31200 nM
EC50 [3, 12]: 80 nM
EC50 ([4]; Homo sapiens, DuPro): 440 nM
EC50 [5]: 970 nM
